Test results reported in US10849985B2, “Method of targeting senescent cells” (Yeda Research and Development Co. Ltd., priority 2015, dated 2020).

Legend:
cell-surface Grp94 = molecular target: T1, cell-surface Grp94 (Homo sapiens, UniProt P14625); assay: Flow cytometry of cell-surface Grp94 on live IMR90 cells; format: cell-based; conditions: 3 days after etoposide treatment
T1 construct: cell-surface Grp94 of live senescent etoposide-treated IMR90 cells after 24 hrs treatment with 10 or 100 μM GPM1; endogenous in cells; host or cells: IMR-90 human fibroblasts (ATCC), made senescent with etoposide
Source text: FIGS. 3A-F. Grp94 translocates to cell-surface of senescent cells. (A) Flow cytometry histogram for the frequency cell-surface Grp94 of live IMR90 cells 0, 3, 7, 14, or 21 days after etoposide treatment. (B) Quantitative analysis of cell-surface Grp94 on live IMR90 cells 0, 3, 7, 14, or 21 days after etoposide treatment. (C) Scheme describing the mechanism of GPM1-mediated blockage of Grp94 translocation to cell-surface. (D) PrestoBlue viability assay for IMR90 growing or senescent Etoposide-treated cells after 24 hrs treatment with 1, 10, or 100 μM GPM1. […] (E) Flow cytometry histogram for the frequency of cell-surface Grp94 of live senescent etoposide-treated IMR90 cells after 24 hrs treatment with 10 or 100 μM GPM1. (F) Quantitative analysis of cell-surface Grp94 on live senescent etoposide-treated IMR90 cells after 24 hrs treatment with 10 or 100 μM GPM1.
IMR-90 cells were gently dissociated from plates using TripLE express reagent (12604-013, Thermo Fisher Scientific), and maintained in cold FACS buffer (PBS containing 1% FCS and 0.1% Sodium Azid) throughout all procedure. […] Cells were analyzed in a SORP-LSRII instrument (BD Biosciences). […] Cells were gated by their size (FSC/SSC), DAPI negative (live cells) and then analyzed for their fluorescence intensity at the wavelength of 647 (cell-surface Grp94 level), using FlowJo v10 software.

cell surface Grp94 = assay: Cell-surface Grp94 of mouse embryonic fibroblasts; format: cell-based; conditions: MEFs 14 days after Etoposide treatment compared to growing MEFs
Method: FIGS. 4A-E. Extracellular Grp94 on senescent cells mediate cytotoxicity of innate components in-vitro. (A) Western blot analysis for Grp94/β-Tubulin in Etoposide-treated IMR90 cells 4 days after transfection with siControl or siHSP90B1 (HSP90B1 is a gene coding for Grp94). (B) PrestoBlue viability assay for Etoposide-treated IMR90 4 days after Transfection with siControl or siHSP90B1. (C) Cytotoxicity of NK92 cells in cultures of IMR90 cells treated with siControl or siHSP90B1. NK92 were added for 1 hour at a ratio of 1:3 (D) Crystal Violet staining for IMR90 cells after co-culturing with MM6 monocytes in the presence of GPM1. (E) Quantitative analysis of cell-surface Grp94 of Mouse embryonic fibroblasts (MEFs) 14 days after Etoposide treatment compared to growing MEFs.
The levels of cell surface Grp94 were also examined in mouse embryonic fibroblast cells (MEFs). […] The relatively high correlation between localization of Grp94 in human and mouse cells implies that it may serve as a new marker for senescent cells.

T1 sequence (P14625 22-803): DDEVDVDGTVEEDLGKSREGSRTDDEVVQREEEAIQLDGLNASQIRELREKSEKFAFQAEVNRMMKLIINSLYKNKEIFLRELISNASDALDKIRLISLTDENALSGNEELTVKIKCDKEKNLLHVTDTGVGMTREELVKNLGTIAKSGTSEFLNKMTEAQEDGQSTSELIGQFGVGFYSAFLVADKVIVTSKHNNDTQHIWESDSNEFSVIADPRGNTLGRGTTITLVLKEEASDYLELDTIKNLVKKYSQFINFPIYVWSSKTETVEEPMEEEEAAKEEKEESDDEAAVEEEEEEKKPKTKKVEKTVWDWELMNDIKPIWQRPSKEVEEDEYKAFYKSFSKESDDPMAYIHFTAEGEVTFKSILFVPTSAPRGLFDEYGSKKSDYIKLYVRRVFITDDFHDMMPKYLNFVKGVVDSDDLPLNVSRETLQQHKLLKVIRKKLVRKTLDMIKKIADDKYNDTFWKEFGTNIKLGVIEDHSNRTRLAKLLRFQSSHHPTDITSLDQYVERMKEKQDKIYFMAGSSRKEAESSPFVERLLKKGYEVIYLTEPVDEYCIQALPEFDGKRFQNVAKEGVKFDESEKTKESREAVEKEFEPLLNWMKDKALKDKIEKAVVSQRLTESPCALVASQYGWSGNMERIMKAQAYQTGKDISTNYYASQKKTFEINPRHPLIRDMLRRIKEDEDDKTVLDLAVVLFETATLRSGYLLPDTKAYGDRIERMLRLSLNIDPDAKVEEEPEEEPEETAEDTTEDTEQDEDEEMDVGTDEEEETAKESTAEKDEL

COc1cc([C@@H]2c3cc4c(cc3[C@@H](O[C@@H]3O[C@@H]5CO[C@@H](C)O[C@H]5[C@H](O)[C@H]3O)[C@H]3COC(=O)[C@H]23)OCO4)cc(OC)c1O [etoposide]
cell-surface Grp94 levels (cell-surface Grp94): not elevated
cell surface Grp94 (cell surface Grp94): significant elevation
